Reference: patent US20230159546A1, “NOVEL SPIROPYRROLIDINE DERIVED ANTIVIRAL AGENTS” (Enanta Pharmaceuticals, Inc., priority 2021, published 2023)
Like-named read-outs stand apart in the source and are kept apart here.

Assays:
SARS-CoV-2 3CL-protease = SARS-CoV-2 3CL-protease (Severe acute respiratory syndrome coronavirus 2, UniProt P0DTD1); assay: SARS-CoV-2 3C-like (3CL) protease fluorescence assay (FRET); assay type: biochemical; conditions: recombinant SARS-CoV-2 3CL-protease 10 nM, 30 min preincubation at RT, duplicate; read-out: FRET IC50
[1] = tested on: 229E human corona virus (hCoV); assay: 229E live virus assay (CPE, ATPlite readout, MRC-5 cells); assay type: cell-based, hCoV-229E; conditions: Human coronavirus 229E, MRC5, 144 h, read-out: 229E EC50
[2] = MRC-5 cells, MOI 0.05, 6 days at 34° C., ATPlite, duplicate

Row | Compound | IC50 (SARS-CoV-2 3CL-protease) [µM] | EC50 [1, 2] [µM] | EC50 [1] [µM]
1 | CC(C)C[C@@H](C(=O)Nc1cc(F)cc(F)c1)C(=O)N1C[C@]2(C[C@H]1C#N)C(=O)Nc1ccccc12 (single isomer, unassigned) [Example 11] | > 1 | > 1 | –
2 | CC(C)C[C@H](C(=O)Nc1cc(F)cc(F)c1)C(=O)N1C[C@]2(C[C@H]1C#N)C(=O)Nc1ccccc12 (single isomer, unassigned) [Example 12] | > 1 | > 1 | –
3 | CC(C)CC(C(=O)Nc1ccccc1)C(=O)N1C[C@]2(C[C@H]1C#N)C(=O)Nc1ccccc12 (stereo partly drawn) [Example 1] | > 1 | – | > 1
4 | CC(C)CC(C(=O)N(C)c1ccccc1)C(=O)N1C[C@]2(C[C@H]1C#N)C(=O)Nc1ccccc12 (stereo partly drawn) [Example 2] | > 1 | > 1 | –
5 | CC(C)CC(C(=O)NC1CC1)C(=O)N1C[C@]2(C[C@H]1C#N)C(=O)Nc1ccccc12 (stereo partly drawn) [Example 3] | > 1 | 0.1 to 1 | –
6 | CC(C)CC(C(=O)Nc1cc2ccccc2[nH]1)C(=O)N1C[C@]2(C[C@H]1C#N)C(=O)Nc1ccccc12 (stereo partly drawn) [Example 4] | > 1 | > 1 | –
7 | CC(C)CC(C(=O)Nc1ccc2ccccc2c1)C(=O)N1C[C@]2(C[C@H]1C#N)C(=O)Nc1ccccc12 (stereo partly drawn) [Example 5] | > 1 | 0.1 to 1 | –
8 | CC(C)CC(C(=O)Nc1cc(F)ccc1F)C(=O)N1C[C@]2(C[C@H]1C#N)C(=O)Nc1ccccc12 (stereo partly drawn) [Example 6] | > 1 | 0.1 to 1 | –
9 | CC(C)CC(C(=O)Nc1cc(F)cc(F)c1)C(=O)N1C[C@]2(C[C@H]1C#N)C(=O)Nc1ccccc12 (stereo partly drawn) [Example 7] | > 1 | 0.1 to 1 | –
10 | CC(C)CC(C(=O)Nc1ccc(F)cc1F)C(=O)N1C[C@]2(C[C@H]1C#N)C(=O)Nc1ccccc12 (stereo partly drawn) [Example 8] | > 1 | > 1 | –
11 | CC(C)CC(C(=O)Nc1ccc(F)cc1Cl)C(=O)N1C[C@]2(C[C@H]1C#N)C(=O)Nc1ccccc12 (stereo partly drawn) [Example 9] | > 1 | > 1 | –
12 | CC(C)CC(C(=O)Nc1c(F)cccc1Cl)C(=O)N1C[C@]2(C[C@H]1C#N)C(=O)Nc1ccccc12 (stereo partly drawn) [Example 10] | > 1 | > 1 | –
13 | CC(C)CC(C(=O)Nc1cccc(-c2ccccc2)c1)C(=O)N1C[C@]2(C[C@H]1C#N)C(=O)Nc1ccccc12 (stereo partly drawn) [Example 13] | > 1 | > 1 | –
14 | CC(C)CC(C(=O)Nc1ccc(-c2ccccc2)cc1)C(=O)N1C[C@]2(C[C@H]1C#N)C(=O)Nc1ccccc12 (stereo partly drawn) [Example 14] | > 1 | > 1 | –
15 | CC(C(=O)Nc1ccccc1)C(=O)N1C[C@]2(C[C@H]1C#N)C(=O)Nc1ccccc12 (stereo partly drawn) [Example 15] | > 1 | > 1 | –
16 | CC(C(=O)N(C)c1ccccc1)C(=O)N1C[C@]2(C[C@H]1C#N)C(=O)Nc1ccccc12 (stereo partly drawn) [Example 16] | > 1 | 0.1 to 1 | –
17 | CC(C(=O)Nc1cc(F)cc(F)c1)C(=O)N1C[C@]2(C[C@H]1C#N)C(=O)Nc1ccccc12 (stereo partly drawn) [Example 17] | > 1 | > 1 | –
18 | CC(C)CC(F)(C(=O)Nc1ccccc1)C(=O)N1C[C@]2(C[C@H]1C#N)C(=O)Nc1ccccc12 (stereo partly drawn) [Example 18] | > 1 | > 1 | –
19 | CC(C)CC(F)(C(=O)N(C)c1ccccc1)C(=O)N1C[C@]2(C[C@H]1C#N)C(=O)Nc1ccccc12 (stereo partly drawn) [Example 19] | > 1 | > 1 | –
20 | CC(C)CC(F)(C(=O)Nc1cc(F)cc(F)c1)C(=O)N1C[C@]2(C[C@H]1C#N)C(=O)Nc1ccccc12 (stereo partly drawn) [Example 20] | > 1 | > 1 | –
21 | N#C[C@@H]1C[C@@]2(CN1C(=O)C(Cc1ccccc1)C(=O)Nc1ccccc1)C(=O)Nc1ccccc12 (stereo partly drawn) [Example 21] | 0.1 to 1 | > 1 | –

Row | Compound | IC50 (SARS-CoV-2 3CL-protease) [µM] | EC50 [1, 2] [µM] | EC50 [1] [µM]
22 | CN(C(=O)C(Cc1ccccc1)C(=O)N1C[C@]2(C[C@H]1C#N)C(=O)Nc1ccccc12)c1ccccc1 (stereo partly drawn) [Example 22] | > 1 | > 1 | –
23 | N#C[C@@H]1C[C@@]2(CN1C(=O)C(Cc1ccccc1)C(=O)Nc1cc(F)cc(F)c1)C(=O)Nc1ccccc12 (stereo partly drawn) [Example 23] | 0.1 to 1 | > 1 | –
24 | N#C[C@@H]1C[C@@]2(CN1C(=O)C(Cc1ccccc1)C(=O)Nc1ccc3ccccc3c1)C(=O)Nc1ccccc12 (stereo partly drawn) [Example 24] | 0.1 to 1 | > 1 | –
25 | N#C[C@@H]1C[C@@]2(CN1C(=O)[C@@H](Cc1ccccc1)C(=O)Nc1cc(F)cc(F)c1)C(=O)Nc1ccccc12 [Example 25] | 0.1 to 1 | > 1 | –
26 | N#C[C@@H]1C[C@@]2(CN1C(=O)C(=O)N[C@H]1CC[C@@H](NC(=O)c3ccccc3)CC1)C(=O)Nc1ccccc12 [Example 151] | > 1 | – | –
27 | CC(C)(C)OC(=O)N[C@H]1CC[C@@H](NC(=O)C(=O)N2C[C@]3(C[C@H]2C#N)C(=O)Nc2ccccc23)C1 [Example 152] | > 1 | – | –
28 | CC(C)(C)OC(=O)N[C@H]1CCC[C@@H]1NC(=O)C(=O)N1C[C@]2(C[C@H]1C#N)C(=O)Nc1ccccc12 [Example 153] | > 1 | – | –
29 | N#C[C@@H]1C[C@@]2(CN1C(=O)C(=O)NCC1CCCCC1)C(=O)Nc1ccccc12 [Example 154] | 0.1 to 1 | – | –
30 | N#C[C@@H]1C[C@@]2(CN1C(=O)C(=O)NCCC1CCCCC1)C(=O)Nc1ccccc12 [Example 155] | 0.1 to 1 | – | –
31 | CCCCCCNC(=O)C(=O)N1C[C@]2(C[C@H]1C#N)C(=O)Nc1ccccc12 [Example 156] | 0.1 to 1 | – | –
32 | N#C[C@@H]1C[C@@]2(CN1C(=O)C(=O)NCC13CC4CC(CC(C4)C1)C3)C(=O)Nc1ccccc12 [Example 158] | < 0.1 | – | –
33 | N#C[C@@H]1C[C@@]2(CN1C(=O)C(=O)NCCc1ccccc1)C(=O)Nc1ccccc12 [Example 159] | > 1 | – | –
34 | N#C[C@@H]1C[C@@]2(CN1C(=O)C(=O)NCCCc1ccccc1)C(=O)Nc1ccccc12 [Example 160] | 0.1 to 1 | – | –
35 | N#C[C@@H]1C[C@@]2(CN1C(=O)C(=O)Nc1cc(C(F)(F)F)ccn1)C(=O)Nc1ccccc12 [Example 161] | > 1 | – | –
36 | N#C[C@@H]1C[C@@]2(CN1C(=O)C(=O)Nc1ccc(C(F)(F)F)cn1)C(=O)Nc1ccccc12 [Example 162] | > 1 | – | –
37 | Cc1ccc(NC(=O)C(=O)N2C[C@]3(C[C@H]2C#N)C(=O)Nc2ccccc23)nc1 [Example 163] | > 1 | – | –
38 | N#C[C@@H]1C[C@@]2(CN1C(=O)C(=O)Nc1ccc(C(F)(F)F)nc1)C(=O)Nc1ccccc12 [Example 164] | > 1 | – | –
39 | N#C[C@@H]1C[C@@]2(CN1C(=O)C(=O)Nc1cccnc1C(F)(F)F)C(=O)Nc1ccccc12 [Example 165] | > 1 | – | –
40 | N#C[C@@H]1C[C@@]2(CN1C(=O)C(=O)Nc1cccc(C(F)(F)F)n1)C(=O)Nc1ccccc12 [Example 166] | > 1 | – | –
41 | N#C[C@@H]1C[C@@]2(CN1C(=O)C(=O)Nc1ccnc(C(F)(F)F)c1)C(=O)Nc1ccccc12 [Example 167] | > 1 | – | –
42 | Cc1cccc(NC(=O)C(=O)N2C[C@]3(C[C@H]2C#N)C(=O)Nc2ccccc23)n1 [Example 168] | > 1 | – | –

Row | Compound | IC50 (SARS-CoV-2 3CL-protease) [µM] | EC50 [1, 2] [µM] | EC50 [1] [µM]
43 | CC(=O)N[C@H]1CC[C@@H](NC(=O)C(=O)N2C[C@]3(C[C@H]2C#N)C(=O)Nc2ccccc23)CC1 [Example 169] | > 1 | – | –
44 | N#C[C@@H]1C[C@@]2(CN1C(=O)CC(=O)N[C@@H]1CCC[C@@H]1O)C(=O)Nc1ccccc12 [Example 170] | > 1 | – | –
45 | N#C[C@@H]1C[C@@]2(CN1C(=O)CC(=O)N[C@H]1CCC[C@@H]1O)C(=O)Nc1ccccc12 [Example 171] | > 1 | – | –
46 | N#C[C@@H]1C[C@@]2(CN1C(=O)CC(=O)N[C@@H]1CCC[C@H]1O)C(=O)Nc1ccccc12 [Example 172] | > 1 | – | –
47 | N#C[C@@H]1C[C@@]2(CN1C(=O)CC(=O)N[C@H]1CCC[C@H]1O)C(=O)Nc1ccccc12 [Example 173] | > 1 | – | –
48 | CC(C)(C)OC(=O)N[C@@H]1CC[C@H](NC(=O)C(=O)N2C[C@]3(C[C@H]2C#N)C(=O)Nc2ccccc23)C1 [Example 174] | > 1 | – | –
49 | N#C[C@@H]1C[C@@]2(CN1C(=O)C(=O)NC1(c3ccccc3)CCCC1)C(=O)Nc1ccccc12 [Example 175] | < 0.1 | – | –
50 | N#C[C@@H]1C[C@@]2(CN1C(=O)C(=O)Nc1cnccc1C(F)(F)F)C(=O)Nc1ccccc12 [Example 176] | > 1 | – | –
51 | C[C@]1(O)CC[C@H](NC(=O)C(=O)N2C[C@]3(C[C@H]2C#N)C(=O)Nc2ccccc23)CC1 [Example 177] | > 1 | – | –
52 | C[C@]1(O)CC[C@@H](NC(=O)C(=O)N2C[C@]3(C[C@H]2C#N)C(=O)Nc2ccccc23)CC1 [Example 178] | > 1 | – | –
53 | CC1(NC(=O)C(=O)N2C[C@]3(C[C@H]2C#N)C(=O)Nc2ccccc23)CCCC1 [Example 179] | 0.1 to 1 | – | –
54 | N#C[C@@H]1C[C@@]2(CN1C(=O)CC(=O)N[C@H]1CC[C@H](O)C1)C(=O)Nc1ccccc12 [Example 180] | > 1 | – | –
55 | N#C[C@@H]1C[C@@]2(CN1C(=O)CC(=O)N[C@@H]1CC[C@@H](O)C1)C(=O)Nc1ccccc12 [Example 181] | > 1 | – | –
56 | N#C[C@@H]1C[C@@]2(CN1C(=O)CC(=O)N[C@H]1CC[C@@H](O)C1)C(=O)Nc1ccccc12 [Example 182] | > 1 | – | –
57 | N#C[C@@H]1C[C@@]2(CN1C(=O)CC(=O)N[C@@H]1CC[C@H](O)C1)C(=O)Nc1ccccc12 [Example 183] | > 1 | – | –
58 | CCCC(CCC)(CCC)NC(=O)C(=O)N1C[C@]2(C[C@H]1C#N)C(=O)Nc1ccccc12 [Example 185] | 0.1 to 1 | – | –
59 | N#C[C@@H]1C[C@@]2(CN1C(=O)C(=O)NCc1cc(F)c(F)cc1F)C(=O)Nc1ccccc12 [Example 186] | > 1 | – | –
60 | N#C[C@@H]1C[C@@]2(CN1C(=O)C(=O)NCCc1cc(F)cc(F)c1F)C(=O)Nc1ccccc12 [Example 187] | > 1 | – | –
61 | Cc1cccc(C)c1NC(CC(=O)N(C)[C@@H](CC(C)C)C(=O)N1C[C@]2(C[C@H]1C#N)C(=O)Nc1ccccc12)C(F)(F)F (stereo partly drawn) [Example 198] | < 0.1 | – | –
62 | N#C[C@@H]1C[C@@]2(CN1C(=O)C(=O)Nc1cncc(C(F)(F)F)c1)C(=O)Nc1ccccc12 [Example 199] | > 1 | – | –
